# Measurements from the supplement of paper PMC10307832.
# Key:
# Experiment in all cases: relative viability (nuclei count vs DMSO), 5 days (fraction); higher = more cells survive
# AZ505 = compound: C1CCC(CC1)N(CCNCCC2=C3C(=C(C=C2)O)NC(=O)CO3)C(=O)CCNCCC4=CC(=C(C=C4)Cl)Cl [AZ505]
# Procedure, shortened: (§1)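 In 1536-well plates, lung cancer cell lines rested overnight at 37 °C before five library-drug doses (not always all listed), √10 apart, were pinned onto vehicle-anchored plates. Nuclei were counted with MetaXpress from 4× Hoechst images taken after 5 days without medium change. Viability compares treated-well with vehicle-well nuclei as a median over plates, and plates needed control CV below 25% plus at least one doubling to pass.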
# Dactolisib = compound: Cn1c(=O)n(-c2ccc(C(C)(C)C#N)cc2)c2c3cc(-c4cnc5ccccc5c4)ccc3ncc21 [Dactolisib]
# Procedure, shortened: as §1
# AZ505 + Trametinib = compound: C1CCC(CC1)N(CCNCCC2=C3C(=C(C=C2)O)NC(=O)CO3)C(=O)CCNCCC4=CC(=C(C=C4)Cl)Cl [AZ505] + CC(=O)Nc1cccc(-n2c(=O)n(C3CC3)c(=O)c3c(Nc4ccc(I)cc4F)n(C)c(=O)c(C)c32)c1 [Trametinib] (partner 0.02 µM)
# Procedure, shortened: (§2)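 Relative viability divides the nuclei count in treated wells by that in vehicle wells. Lung cancer cell lines were seeded in 1536-well plates, dosed by pin tool the next day, and fixed and stained after 5 days in one step with final 0.05% Triton X-100, 1% formaldehyde and 1 ug/ml Hoechst. Dosing was a single drug or a fixed anchor-drug dose plus five library-drug doses (not always all listed) in √10 steps, and values are medians of duplicate plates imaged at 4×.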
# Dactolisib + Navitoclax = compound: Cn1c(=O)n(-c2ccc(C(C)(C)C#N)cc2)c2c3cc(-c4cnc5ccccc5c4)ccc3ncc21 [Dactolisib] + CC1(C)CCC(c2ccc(Cl)cc2)=C(CN2CCN(c3ccc(C(=O)NS(=O)(=O)c4ccc(N[C@H](CCN5CCOCC5)CSc5ccccc5)c(S(=O)(=O)C(F)(F)F)c4)cc3)CC2)C1 [Navitoclax] (partner 0.5 µM)
# Procedure, shortened: as §2
Cell Line,relative viability (AZ505; 0.08 µM),relative viability (AZ505; 0.253 µM),relative viability (AZ505; 0.8 µM),relative viability (AZ505; 2.53 µM),relative viability (AZ505; 8 µM),relative viability (Dactolisib; 0.002 µM),relative viability (Dactolisib; 0.006325 µM),relative viability (Dactolisib; 0.02 µM),relative viability (Dactolisib; 0.06325 µM),relative viability (Dactolisib; 0.2 µM),relative viability (AZ505 + Trametinib; first compound 0.08 µM),relative viability (AZ505 + Trametinib; first compound 0.8 µM),relative viability (AZ505 + Trametinib; first compound 2.53 µM),relative viability (AZ505 + Trametinib; first compound 8 µM),relative viability (Dactolisib + Navitoclax; first compound 0.002 µM),relative viability (Dactolisib + Navitoclax; first compound 0.006325 µM),relative viability (Dactolisib + Navitoclax; first compound 0.02 µM),relative viability (Dactolisib + Navitoclax; first compound 0.06325 µM),relative viability (Dactolisib + Navitoclax; first compound 0.2 µM),relative viability (AZ505 + Trametinib; first compound 0.253 µM)
EMC-BAC-2,0.948,0.789,0.923,1.03,0.987,1.07,0.924,0.88,0.636,0.494,0.83,0.876,0.82,0.902,1.19,1.13,1.11,0.867,0.642,–
LK-2,0.974,1.17,0.941,1.09,1.11,0.905,0.877,0.846,0.433,0.253,0.661,0.718,0.865,0.865,0.773,0.852,0.639,0.381,0.282,0.687
NCI-H2126,0.993,0.945,0.971,0.984,0.988,1.09,0.936,0.892,0.638,0.488,0.523,0.523,0.629,0.574,0.896,0.77,0.762,0.564,0.399,0.592
NCI-H3122,0.972,1.01,0.975,0.931,1.02,0.993,1.01,0.981,0.99,0.751,0.211,0.215,0.27,0.267,1.02,1.05,0.993,0.809,0.491,0.258
NCI-H1975,0.831,0.848,0.951,0.901,0.972,0.922,0.957,0.824,0.483,0.315,0.351,0.377,0.356,0.332,1.14,1.01,0.689,0.55,0.362,0.315
NCI-H1944,0.949,0.989,1.06,0.861,1.02,1.12,0.973,0.917,0.387,0.402,0.377,0.414,0.444,0.386,1.06,0.986,0.933,0.526,0.36,0.391
LU99A,0.782,1.02,0.979,0.813,0.944,0.93,0.904,0.766,0.429,0.31,0.518,0.531,–,0.498,0.704,0.689,0.291,0.173,0.185,0.51
NCI-H2347,0.643,0.759,0.738,0.589,0.833,1.27,0.971,0.958,0.771,0.517,0.332,0.263,0.247,0.254,0.928,0.746,0.729,0.308,0.271,0.258
NCI-H2009,0.987,0.986,0.998,0.921,0.952,1.05,0.983,1.04,0.598,0.366,0.247,0.233,0.276,0.287,1.27,1.12,1.1,0.692,0.501,0.262
HCC-15,0.938,0.963,1.03,0.956,1.1,0.98,0.974,0.985,0.635,0.422,0.278,0.341,0.366,0.372,0.767,0.646,0.673,0.475,0.322,0.391
HCC-44,0.951,0.945,0.934,1.01,1.02,0.979,1.01,1.03,0.688,0.929,1.03,1.02,1.05,1.1,1.06,0.982,1,0.266,0.3,1.09
COR-L23,0.947,0.97,0.893,0.933,0.95,1.15,1.06,0.911,0.27,0.249,0.45,0.519,0.534,0.482,1.14,0.934,0.644,0.238,0.188,0.516
HCC-78,0.794,0.775,0.861,0.937,0.978,1.06,0.909,0.829,0.657,0.387,–,0.594,0.701,0.653,0.784,0.791,0.543,0.288,0.251,–
NCI-H727,0.836,0.879,0.864,0.654,1.11,0.839,1.02,0.9,0.487,0.414,0.418,0.365,0.391,0.358,0.467,0.506,0.341,0.248,0.162,0.411
NCI-H2087,0.883,0.987,0.978,0.996,0.982,1.38,1.22,1.07,0.657,0.437,0.171,0.221,0.281,0.219,0.986,0.907,1.02,0.481,0.429,0.257
BEN,0.873,0.97,0.905,1.1,1.05,1.02,0.883,0.81,0.536,0.366,0.971,0.972,1,1.08,0.114,0.0698,0.0623,0.0651,0.0432,1.08

Cell Line,relative viability (AZ505; 0.08 µM),relative viability (AZ505; 0.253 µM),relative viability (AZ505; 0.8 µM),relative viability (AZ505; 2.53 µM),relative viability (AZ505; 8 µM),relative viability (Dactolisib; 0.002 µM),relative viability (Dactolisib; 0.006325 µM),relative viability (Dactolisib; 0.02 µM),relative viability (Dactolisib; 0.06325 µM),relative viability (Dactolisib; 0.2 µM),relative viability (AZ505 + Trametinib; first compound 0.08 µM),relative viability (AZ505 + Trametinib; first compound 0.8 µM),relative viability (AZ505 + Trametinib; first compound 2.53 µM),relative viability (AZ505 + Trametinib; first compound 8 µM),relative viability (Dactolisib + Navitoclax; first compound 0.002 µM),relative viability (Dactolisib + Navitoclax; first compound 0.006325 µM),relative viability (Dactolisib + Navitoclax; first compound 0.02 µM),relative viability (Dactolisib + Navitoclax; first compound 0.06325 µM),relative viability (Dactolisib + Navitoclax; first compound 0.2 µM),relative viability (AZ505 + Trametinib; first compound 0.253 µM)
EKVX,0.957,0.961,0.952,0.89,1.03,1.02,0.971,0.858,0.691,0.417,–,0.321,0.414,0.397,0.961,0.98,0.815,0.782,0.346,0.326
LXF-289,0.967,0.98,0.988,1.02,1.01,1.07,1.04,1,0.998,0.84,0.632,0.66,0.678,0.665,1.02,0.932,1,0.828,0.571,0.629
NCI-H1650,0.828,0.973,0.882,0.926,1.04,0.943,0.92,0.867,0.468,0.41,0.48,0.71,0.556,0.626,1.18,0.998,0.83,0.337,0.416,0.686
NCI-H2085,0.872,0.953,0.894,0.971,1.05,1.02,0.986,0.96,0.553,0.387,0.49,0.52,0.571,0.591,1.17,1.01,0.89,0.584,0.367,0.477
NCI-H1793,0.805,0.883,0.83,0.768,0.976,0.807,0.569,0.474,0.242,0.241,0.382,0.416,0.428,0.434,0.372,0.416,0.272,0.184,0.159,0.372
LC-2-ad,0.902,0.922,1.01,1.07,0.998,1.03,0.959,1.06,0.823,0.58,0.844,0.894,0.889,0.947,0.453,–,0.285,0.189,0.159,0.885
COR-L 105,0.89,0.918,0.887,0.851,1.01,0.959,0.898,0.781,0.363,0.425,0.403,0.446,0.428,0.476,0.754,0.759,1.02,0.323,0.271,0.452
NCI-H1355,0.928,0.854,0.97,0.936,1.03,1.05,0.925,0.915,0.479,0.369,0.419,0.446,0.445,0.44,0.959,0.836,0.86,0.335,0.234,0.394
H3255,0.901,1,1.01,1.06,1.03,1.09,0.908,0.91,0.784,0.627,–,0.543,0.578,0.611,0.724,0.488,0.426,0.458,0.176,0.604
NCI-H1993,0.871,0.888,0.903,1.02,1.09,1.01,0.702,0.663,0.59,0.603,0.463,0.45,0.575,0.469,0.827,0.846,0.625,0.537,0.626,0.533
NCI-H1734,0.905,0.914,0.952,0.971,0.958,1.04,0.887,0.864,0.384,0.313,0.65,0.652,0.675,0.691,0.839,0.647,0.743,0.275,0.234,0.647
HOP-62,0.892,1.09,1.14,0.995,1.08,1.05,1.03,1.02,0.595,0.647,0.371,0.333,0.382,0.32,1.24,1.08,1.06,0.353,0.613,0.326
LOU-NH91,0.9,0.937,0.967,0.983,1.01,0.994,0.997,0.885,0.613,0.623,0.772,0.76,0.798,0.765,0.547,0.6,0.646,0.431,0.385,0.77
ChaGo-K-1,0.959,1,1.05,1.01,1.12,0.963,0.964,0.945,0.909,0.868,0.838,0.871,0.846,0.91,0.92,1.03,0.975,1.13,0.765,0.918
NCI-H2228,0.897,0.859,0.821,1.07,0.885,1.13,0.812,0.612,0.38,0.197,0.311,0.441,0.49,0.429,0.875,0.699,0.551,0.241,0.215,0.374
